Results reported in ChEMBL document CHEMBL1141794, “Alkamides from the leaves of Zanthoxylum syncarpum” (J Nat Prod, 2005).
Calls of active or inactive are those of the source. The rule behind the calls is not given here.

Experiments:
Plasmodium falciparum [1] = assay: microbe, parasite or virus in culture; conditions: D6, 48 h
Description: (§1) Antiplasmodial activity against chloroquine-sensitive Plasmodium falciparum D6 after 48 hrs

Plasmodium falciparum [2] = assay: microbe, parasite or virus in culture; conditions: W2, 48 h
Description: (§2) Antiplasmodial activity against chloroquine-resistant Plasmodium falciparum W2 after 48 hrs

Plasmodium falciparum [3] = conditions: W2
Description: as §2

Plasmodium falciparum [4] = conditions: D6
Description: as §1

In the case of `COc1ccc([C@H](CNC(=O)/C=C/c2ccccc2)C(=O)/C=C/c2ccccc2)cc1OC`, the IC50 (Plasmodium falciparum [1]) is reported as 4200 nM and the IC50 (Plasmodium falciparum [2]) is reported as 6100 nM.
With `COc1ccc(C(CNC(=O)/C=C/c2ccccc2)OC(C)=O)cc1OC` (stereo not drawn) the Activity (Plasmodium falciparum [3]) was “inactive” and the Activity (Plasmodium falciparum [4]) was “inactive”.
For `C[C@@H]1CC[C@H]2[C@@H](C)C(=O)O[C@@H]3O[C@@]4(C)CC[C@@H]1[C@]32OO4` [ARTEMISININ], the IC50 (Plasmodium falciparum [1]) was 40 nM and the IC50 (Plasmodium falciparum [2]) was 30 nM.
`COc1ccc(C(O)CNC(=O)/C=C/c2ccccc2)cc1OC` (stereo not drawn) was tested, and the Activity (Plasmodium falciparum [3]) was “inactive” and the Activity (Plasmodium falciparum [4]) was “inactive”.
